Molecular target: T1, human ANO6 (Homo sapiens, UniProt Q4KMQ2)
T1 construct: expressed in transfected cells
T1 sequence (Q4KMQ2 1-931 isoform Q4KMQ2-2): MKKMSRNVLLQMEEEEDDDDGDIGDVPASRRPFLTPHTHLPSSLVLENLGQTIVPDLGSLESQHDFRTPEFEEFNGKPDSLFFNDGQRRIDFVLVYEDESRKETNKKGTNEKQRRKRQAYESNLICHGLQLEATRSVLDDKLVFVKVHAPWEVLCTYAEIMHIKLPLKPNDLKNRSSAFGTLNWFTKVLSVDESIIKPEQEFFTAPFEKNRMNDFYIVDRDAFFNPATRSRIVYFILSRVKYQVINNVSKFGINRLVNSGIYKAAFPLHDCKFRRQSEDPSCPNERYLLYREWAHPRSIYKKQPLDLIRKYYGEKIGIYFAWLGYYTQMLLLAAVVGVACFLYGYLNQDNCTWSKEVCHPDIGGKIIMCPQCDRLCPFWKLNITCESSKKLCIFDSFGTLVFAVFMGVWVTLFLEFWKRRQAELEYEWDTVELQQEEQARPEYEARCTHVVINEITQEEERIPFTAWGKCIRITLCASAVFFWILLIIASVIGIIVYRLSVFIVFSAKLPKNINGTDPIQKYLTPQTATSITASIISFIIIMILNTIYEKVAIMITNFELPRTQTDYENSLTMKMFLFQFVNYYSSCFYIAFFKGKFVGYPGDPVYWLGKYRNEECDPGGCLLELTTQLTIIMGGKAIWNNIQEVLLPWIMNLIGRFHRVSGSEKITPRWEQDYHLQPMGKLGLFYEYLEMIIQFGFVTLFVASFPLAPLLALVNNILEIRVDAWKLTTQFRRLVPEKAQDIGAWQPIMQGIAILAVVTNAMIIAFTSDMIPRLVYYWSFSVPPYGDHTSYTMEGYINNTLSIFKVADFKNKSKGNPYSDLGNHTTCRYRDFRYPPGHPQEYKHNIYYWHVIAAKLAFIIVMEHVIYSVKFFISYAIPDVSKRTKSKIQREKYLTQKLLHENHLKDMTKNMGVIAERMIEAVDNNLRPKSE
Experiment: LACT C2 assay (phosphatidylserine scramblase function assay)
Format: cell-based
Settings: FRT cells expressing human ANO6, 10 μM ionomycin; for inhibition at 0.1 µM: test compound 100 nM, read-out: Inhibition Level 100 nM; for inhibition at 1 µM: test compound 1 μM, read-out: Inhibition Level 1 μM
How it was run: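 Inhibition was normalised between ionomycin-only (0%) and untreated (100%) wells, with triplicates averaged. Readout was background-corrected Lact-C2-GFP (500 nM) fluorescence from imaged cells. The cells were FRT cells stably expressing human ANO6, given compound at 1% DMSO for 10 min before a 10 min 10 μM ionomycin challenge.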

SMILES | inhibition at 0.1 µM [%] | inhibition at 1 µM [%]
O=C(N[C@@H]1C[C@H]1c1ccccc1)c1cccc(Nc2ncc(-c3cccc(F)c3)cn2)c1 [Compound 119, 3-{[5-(3-fluorophenyl)pyrimidin-2-yl]amino}-N-[(1R,2S)-2-phenylcyclopropyl]benzamide] | ≥ 60 | ≥ 60
O=C(Nc1ccc(Cl)c(Cl)c1)c1cccc(Nc2ncc(-c3cccc(F)c3)cn2)c1 [Compound 118, N-(3,4-dichlorophenyl)-3-{[5-(3-fluorophenyl)pyrimidin-2-yl]amino}benzamide] | ≥ 60 | ≥ 60
O=C(NCCC1CCCCC1)c1cccc(Nc2ncc(-c3cccc(F)c3)cn2)c1 [Compound 80, N-(2-cyclohexylethyl)-3-{[5-(3-fluorophenyl)pyrimidin-2-yl]amino}benzamide] | ≥ 60 | ≥ 60
O=C(N[C@@H]1C[C@H]1c1ccccc1)c1cccc(Nc2ccc(-c3cccc(F)c3)cn2)c1 [Compound 123, 3-{[5-(3-fluorophenyl)pyridin-2-yl]amino}-N-[(1R,2S)-2-phenylcyclopropyl]benzamide] | ≥ 60 | ≥ 60
O=C(N[C@@H]1C[C@H]1c1ccccc1)c1cccc(Nc2ccc(-c3ccccc3)nn2)c1 [Compound 68, N-[(1R,2S)-2-phenylcyclopropyl]-3-[(6-phenylpyridazin-3-yl)amino]benzamide] | ≥ 60 | ≥ 60
O=C(NCCc1cccc(C(F)(F)F)c1)c1cccc(Nc2ncc(-c3cccc(F)c3)cn2)c1 [Compound 79, 3-{[5-(3-fluorophenyl)pyrimidin-2-yl]amino}-N-{2-[3-(trifluoromethyl)phenyl]ethyl}benzamide] | ≥ 60 | ≥ 60
O=C(Nc1cccc(F)c1)c1cccc(Nc2ccc(-c3cccc(F)c3)cn2)c1 [Compound 122, N-(3-fluorophenyl)-3-{[5-(3-fluorophenyl)pyridin-2-yl]amino}benzamide] | ≥ 60 | ≥ 60

Source: patent US20230080054A1 (ILDONG PHARMACEUTICAL CO., LTD., priority 2021, published 2023)
